Source: article PMC11836371, “Virtual fragment screening for DNA repair inhibitors in vast chemical space” (Nature Communications, 2025)
Several values for one entry are separate records, joined by “and”; a condition that tells them apart may be missing. Equal values may be shown once.

Experiments:
[1] = Cell viability assay (resazurin), BJhTERT non-transformed control; format: cell-based; settings: human, BJhTERT immortalized fibroblast cells, BJhTERT, 100 μM, two independent experiments; read-out: percentage cell viability
Procedure: (§1) A2780, HCT116, and HEK293T cell lines were authenticated with STR profiling, frozen down, and these stocks were used in experiments. […] All media were supplemented with 10% FBS and 1% P/S. All cell culture media, additives, and reagents were purchased from Thermo Fisher Scientific. The cell plates were incubated 72 hours in a humidified incubator at 37 °C with 5% CO2, after which resazurin (Sigma-Aldrich), 10 µL/well, was added to a final concentration of 10 µg/mL. […] The cell viability was calculated compared to untreated control wells and the EC50 values were determined in XLfit (IDBS).

BJhTERT cells = assay: as above; format: cell-based; settings: BJhTERT, 100 μM, two independent experiments
Procedure: as §1

human OGG1 enzyme = human OGG1 enzyme (Homo sapiens, UniProt O15527); assay: Differential scanning fluorimetry (DSF) thermal shift assay; format: binding; design: ∆Tm (K): unit of the concentration uncertain; settings: for ΔTm: concentration not given
Procedure: The temperature was increased from 20 °C to 85 °C with 10 readings/degree. Tm values were calculated using an excel template and fitting to the Boltzmann equation in Prism v.6.07 (GraphPad Software).

A549 cells = assay: Cancer cell viability assay (resazurin), A549; format: cell-based; settings: two independent experiments; for percentage cell viability: A549, 100 μM, 100 µM; for viability at 100 µM: Homo sapiens, A549, A549, 100 μM, read-out: percentage cell viability
Procedure: Three different cancer cell lines A2780 (ovarian cancer, ECACC 93112519), A549 (lung cancer, ATCC 60150896) and HCT116 (colon cancer, ATCC CCL-247), and one immortalized fibroblast cell line (BJhTERT) as control, were seeded in black/clear 384-well plates (Corning #3764), 50 µL/well, containing 11 concentrations, nano-dispensed, dose-response curves of the test compounds. A2780, HCT116, and HEK293T cell lines were authenticated with STR profiling, frozen down, and these stocks were used in experiments. The A2780 cells were cultured in RPMI 1640, the A549 and BJhTERT cells in DMEM, and the HCT116 cells in McCoys 5 A medium. All media were supplemented with 10% FBS and 1% P/S. All cell culture media, additives, and reagents were purchased from Thermo Fisher Scientific. The cell plates were incubated 72 hours in a humidified incubator at 37 °C with 5% CO2, after which resazurin (Sigma-Aldrich), 10 µL/well, was added to a final concentration of 10 µg/mL. The plates were incubated for 6 hours with resazurin followed by fluorescence readings in a Sense plate reader (Hidex), resorufin protocol (ex 544 nm/em 595 nm). The cell viability was calculated compared to untreated control wells and the EC50 values were determined in XLfit (IDBS).

NEIL1 = NEIL1 (Homo sapiens, UniProt Q96FI4); assay: biochemical
Procedure: (§2) Inhibition of the following enzymes was assessed in the selectivity assays: apurinic/apyrimidinic endonuclease (APE1), endonuclease 8-like 1 (NEIL1), oxidized purine nucleoside triphosphate hydrolase (MTH1) and single-strand selective monofunctional uracil DNA glycosylase (SMUG1). BER enzymes were assayed with a similar strategy as OGG1, using identical DNA sequences surrounding the substrate lesion and the same reaction buffer containing 2 nM APE1. To assess SMUG1 inhibition, a 375 nM substrate containing uracil opposite guanine and 0.3 U SMUG1 enzyme (M0336 from New England Biolabs) was used. To assess NEIL1 inhibition, a 20 nM substrate containing thymidine glycol opposite adenine and 10 nM NEIL1 was used. […] All BER inhibition assays were in the linear range and less than 40% of the total substrate had been consumed at readout. The experiments were performed in three independent replicates and the percentage inhibition was calculated relative to the signal of a DMSO-treated control. […] The produced free phosphate was then detected using the malachite green assay[76]. […] Absorbance was read at 630 nm using a Hidex Sense plate reader after a period of incubation with the methylene green reagent of 15 minutes. The experiment was performed in three independent replicates and percentage inhibition was calculated relative to the signal of a DMSO-treated control.

MTH1 = MTH1 (Homo sapiens, UniProt P36639); assay: biochemical
Procedure: Inhibition of the following enzymes was assessed in the selectivity assays: apurinic/apyrimidinic endonuclease (APE1), endonuclease 8-like 1 (NEIL1), oxidized purine nucleoside triphosphate hydrolase (MTH1) and single-strand selective monofunctional uracil DNA glycosylase (SMUG1). BER enzymes were assayed with a similar strategy as OGG1, using identical DNA sequences surrounding the substrate lesion and the same reaction buffer containing 2 nM APE1. To assess SMUG1 inhibition, a 375 nM substrate containing uracil opposite guanine and 0.3 U SMUG1 enzyme (M0336 from New England Biolabs) was used. To assess NEIL1 inhibition, a 20 nM substrate containing thymidine glycol opposite adenine and 10 nM NEIL1 was used. To assess APE1 inhibition, an UNG2 substrate was pre-treated with E. coli Uracil-DNA glycosylase (New England Biolabs M0280) to generate an AP-site opposite adenine, which was used at 10 nM concentration in the presence of 0.1 nM APE1. All BER inhibition assays were in the linear range and less than 40% of the total substrate had been consumed at readout. The experiments were performed in three independent replicates and the percentage inhibition was calculated relative to the signal of a DMSO-treated control. To assess MTH1 inhibition, MTH1-catalyzed dGTP hydrolysis was coupled to inorganic pyrophosphatase (PPase), thereby releasing inorganic phosphate. The produced free phosphate was then detected using the malachite green assay[76]. […] Substrate concentration at the Km value for the respective substrate was chosen if possible. Inhibition using 100 μM compound was tested in reaction buffer (100 mM Tris-Acetate pH 8.0, 10 mM magnesium acetate, 40 mM NaCl, 1 mM DTT, and 0.005% Tween-20). Samples were incubated with shaking at 22 °C for 15 minutes. The reaction was then stopped by the addition of the malachite green reagent[76]. Absorbance was read at 630 nm using a Hidex Sense plate reader after a period of incubation with the methylene green reagent of 15 minutes. The experiment was performed in three independent replicates and percentage inhibition was calculated relative to the signal of a DMSO-treated control.

SMUG1 = biological target: T1, SMUG1 (Homo sapiens, UniProt Q53HV7); assay: BER enzyme selectivity assay, SMUG1; format: biochemical; settings: Figure 3B, three independent experiments
T1 construct: purchased New England Biolabs M0336
T1 sequence (Q53HV7 1-270): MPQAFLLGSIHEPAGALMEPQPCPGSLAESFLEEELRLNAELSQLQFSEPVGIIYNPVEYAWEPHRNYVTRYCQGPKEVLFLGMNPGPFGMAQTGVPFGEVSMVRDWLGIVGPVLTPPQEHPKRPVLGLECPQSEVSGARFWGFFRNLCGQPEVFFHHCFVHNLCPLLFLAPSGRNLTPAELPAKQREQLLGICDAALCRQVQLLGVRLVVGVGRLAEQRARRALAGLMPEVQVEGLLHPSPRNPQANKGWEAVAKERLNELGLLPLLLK
Procedure: as §2

[2] = Caco-2 cell permeability assay; format: in vitro ADME; settings: human, Caco-2, pH 7.4; for Papp A→B at 60 min, 10 µM: read-out: Papp AB (10–6 cm/s); for Papp B→A at 60 min, 10 µM: read-out: Papp BA (10–6 cm/s)
Procedure: Prior to the experiment a drug solution of 10 µM was prepared and warmed to 37 °C. The Caco-2 filters were washed with pre-warmed HBSS prior to the experiment, and thereafter the experiment was started by applying the donor solution on the apical or basolateral side. The transport experiments were carried out at pH 7.4 in both the apical and basolateral chamber. The experiments were performed at 37 °C and with a stirring rate of 500 rpm. The receiver compartment was sampled at 15, 30, and 60 min, and at 60 min also a final sample from the donor chamber was taken to calculate the mass balance of the compound. The samples (100 µL) were transferred to a 96-well plate containing 100 µL methanol and Warfarin as IS and was sealed until analyzed by liquid chromatography coupled to triple quadrupole mass spectrometry (LC-MS/MS).

OGG1-GFP in U2OS cells = biological target: T2, OGG1-GFP in U2OS cells (Homo sapiens, UniProt O15527); assay: Laser microirradiation assay (OGG1-GFP recruitment to DNA damage sites); format: cell-based; settings: for OGG1-GFP recruitment to DNA damage sites, intensity normalised to time 0 (Figure3E): single-cell replicate traces
T2 construct: expressed in transfected cells

[3] = 99 (unit uncertain) as printed in sheet footnote

T2 sequence (O15527 whole entry): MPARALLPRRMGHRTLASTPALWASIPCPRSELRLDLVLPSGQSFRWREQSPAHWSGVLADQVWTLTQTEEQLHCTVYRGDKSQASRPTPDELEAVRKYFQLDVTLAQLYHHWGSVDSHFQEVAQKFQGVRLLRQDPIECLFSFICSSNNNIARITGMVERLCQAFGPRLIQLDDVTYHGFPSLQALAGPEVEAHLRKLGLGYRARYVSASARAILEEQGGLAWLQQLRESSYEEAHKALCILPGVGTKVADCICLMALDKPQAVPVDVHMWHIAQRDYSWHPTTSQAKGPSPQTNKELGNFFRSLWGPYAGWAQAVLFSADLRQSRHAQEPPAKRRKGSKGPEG
Sequence of human OGG1 enzyme (O15527 whole entry): as above
Sequence of NEIL1 (Q96FI4 whole entry, species assumed): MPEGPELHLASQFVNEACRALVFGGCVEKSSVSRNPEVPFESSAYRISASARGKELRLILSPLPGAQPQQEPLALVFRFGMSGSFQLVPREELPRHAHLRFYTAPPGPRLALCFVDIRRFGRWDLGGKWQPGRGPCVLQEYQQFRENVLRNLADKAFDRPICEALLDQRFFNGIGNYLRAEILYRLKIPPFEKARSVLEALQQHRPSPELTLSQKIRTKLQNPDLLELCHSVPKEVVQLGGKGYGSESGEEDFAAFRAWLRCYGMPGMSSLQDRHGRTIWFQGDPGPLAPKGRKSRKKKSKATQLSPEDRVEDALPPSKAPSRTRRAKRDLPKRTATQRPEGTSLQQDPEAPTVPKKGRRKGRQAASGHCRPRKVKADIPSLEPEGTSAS

With `Cc1nc(-c2ccc(CC(=O)Nc3noc4c3CCCC4)cc2)c(C)[nH]1` [compound 17] the viability at 72 h, 100 µM [1] was 28%, the percentage cell viability (BJhTERT cells) was 38.43% and the “∆Tm (K)” value (human OGG1 enzyme; 99 μM) was 8.1 ± 0.1 K. For the same compound, the “∆Tm (K)” value (human OGG1 enzyme; 99 μM, listed as Compound 17) was 8.1 K, the “∆Tm (K)” value (human OGG1 enzyme; [3]) was 8.1 ± 0.1 K and the ΔTm (human OGG1 enzyme) was 8.1 K. The percentage cell viability (A549 cells) was 56.76%, the viability at 100 µM (A549 cells) was 52.6% and the IC50 (NEIL1) was > 99 µM. The IC50 (MTH1) was 24.3 µM and 20.6 µM and 24.9 µM, the IC50 (SMUG1) was > 99 µM and the efflux ratio at 60 min, 10 µM [2] was 6.7. For the same compound, the Papp A→B at 60 min, 10 µM [2] was 19.8 ×10⁻⁶ cm/s and the Papp B→A at 60 min, 10 µM [2] was 134 ×10⁻⁶ cm/s.
In the case of `Cc1nc(-c2cc(F)c(CC(=O)Nc3noc4c3CCCC4)c(F)c2)c(C)[nH]1` [compound 23], the viability at 72 h, 100 µM [1] is reported as 67.4%, the percentage cell viability (BJhTERT cells) is reported as 68.66% and the “∆Tm (K)” value (human OGG1 enzyme; 99 μM) is reported as 9.0 ± 0.2 K. For the same compound, the “∆Tm (K)” value (human OGG1 enzyme; [3]) was 9.0 ± 0.2 K, the ΔTm (human OGG1 enzyme) was 9.0 K and the “OGG1-GFP recruitment to DNA damage sites, intensity normalised to time 0 (Figure3E)” value (OGG1-GFP in U2OS cells; 10uM, time 14 s) was 1.25 (2×) and 1.24 (4×) and 1.21 and 1.14 and 1.19 (2×) and 1.22 (2×) and 1.23 and 1.26 and 1.2. For the same compound, the “OGG1-GFP recruitment to DNA damage sites, intensity normalised to time 0 (Figure3E)” value (OGG1-GFP in U2OS cells; 10uM, time 16 s) was 1.27 (3×) and 1.26 (2×) and 1.29 (2×) and 1.23 (4×) and 1.12 and 1.19 and 1.18 and 1.24, the “OGG1-GFP recruitment to DNA damage sites, intensity normalised to time 0 (Figure3E)” value (OGG1-GFP in U2OS cells; 10uM, time 18 s) was 1.27 (2×) and 1.28 (3×) and 1.24 (3×) and 1.15 and 1.21 and 1.19 and 1.25 (3×) and 1.31 and the “OGG1-GFP recruitment to DNA damage sites, intensity normalised to time 0 (Figure3E)” value (OGG1-GFP in U2OS cells; 10uM, time 20 s) was 1.3 and 1.29 and 1.33 and 1.26 and 1.15 and 1.24 and 1.21 and 1.27 (2×) and 1.28. For the same compound, the “Maximum Intensity (OGG1-GFP at damage sites)” value (OGG1-GFP in U2OS cells; 50uM, single cells, U2OS) was 1.31 and 1.3 and 1.27 and 1.34 and 1.37 and 1.28 and 1.23 and 1.32, the “OGG1-GFP recruitment to DNA damage sites, intensity normalised to time 0 (Figure3E)” value (OGG1-GFP in U2OS cells; 50uM, time 14 s) was 1.18 (2×) and 1.14 and 1.21 (4×) and 1.2 (3×) and 1.12 and 1.19 (2×) and 1.22 and 1.23 and the “OGG1-GFP recruitment to DNA damage sites, intensity normalised to time 0 (Figure3E)” value (OGG1-GFP in U2OS cells; 50uM, time 16 s) was 1.19 and 1.14 and 1.22 (4×) and 1.15 and 1.21 (3×) and 1.2 (2×) and 1.24 and 1.25 and 1.23. For the same compound, the “OGG1-GFP recruitment to DNA damage sites, intensity normalised to time 0 (Figure3E)” value (OGG1-GFP in U2OS cells; 50uM, time 18 s) was 1.2 (3×) and 1.15 (2×) and 1.22 (3×) and 1.21 (2×) and 1.24 (3×) and 1.23 and 1.27, the “recruitment of OGG1-GFP to laser-induced DNA damage sites” value (OGG1-GFP in U2OS cells; U2OS cells) was “impaired” and the percentage cell viability (A549 cells) was 73.95%. It also gave a viability at 100 µM (A549 cells) of 60.6%, a Papp A→B at 60 min, 10 µM [2] of 6.13 ×10⁻⁶ cm/s and a Papp B→A at 60 min, 10 µM [2] of 94.2 ×10⁻⁶ cm/s.
